Measurements from ChEMBL document CHEMBL4616676, “Synthesis and Biological Activity of 2,22-Dimethylene Analogues of 19-Norcalcitriol and Related Compounds” (J Med Chem, 2020).
The source made the active and inactive calls. The rule behind the calls is not given here.

Columns and labels:
Rattus norvegicus [1] = test: Induction of bone calcium mobilization in vitamin D-deficient Sprague-Dawley rat assessed as serum calcium level at 87 pmol, ip administered as 4 consecutive daily doses measured after 24 hrs post last dose by spectrometry relative to 1alpha,25-(OH)2D3; format: functional, organism-based
Rattus norvegicus [2] = test: Induction of intestinal calcium transport in vitamin D-deficient Sprague-Dawley rat assessed as ratio of serosal to mucosal calcium level at 780 pmol, ip administered as 4 consecutive daily doses measured after 24 hrs post last dose by gut sac assay relative to 1alpha,25-(OH)2D3; format: functional, organism-based
Rattus norvegicus [3] = test: Induction of intestinal calcium transport in vitamin D-deficient Sprague-Dawley rat assessed as ratio of serosal to mucosal calcium level at 87 pmol, ip administered as 4 consecutive daily doses measured after 24 hrs post last dose by gut sac assay relative to 1alpha,25-(OH)2D3; format: functional, organism-based
[4] = molecular target: T1, Vitamin D3 receptor (Homo sapiens) (UniProt P11473); test: Potency index, ratio of ED50 for 1-alpha,25-(OH)2D3 to ED50 for test compound for agonist activity at VDR in human HL60 cells assessed as induction of cell differentiation of promyelocytes to monocytes after 4 days by NBT reduction assay; format: cell-based; details: HL-60
T1 sequence (whole entry): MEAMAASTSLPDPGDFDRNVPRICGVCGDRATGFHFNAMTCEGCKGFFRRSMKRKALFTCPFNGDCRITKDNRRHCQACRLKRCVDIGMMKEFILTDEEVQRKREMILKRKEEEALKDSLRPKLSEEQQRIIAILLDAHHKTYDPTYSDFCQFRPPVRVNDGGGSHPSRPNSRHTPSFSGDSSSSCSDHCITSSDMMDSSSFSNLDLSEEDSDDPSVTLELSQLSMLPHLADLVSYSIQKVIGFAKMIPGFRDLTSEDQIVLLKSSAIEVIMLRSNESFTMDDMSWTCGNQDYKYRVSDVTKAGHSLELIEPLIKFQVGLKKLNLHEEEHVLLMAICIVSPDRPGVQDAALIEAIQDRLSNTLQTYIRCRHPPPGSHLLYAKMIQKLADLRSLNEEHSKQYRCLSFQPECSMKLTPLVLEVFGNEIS

Rattus norvegicus [5] = test: Induction of bone calcium mobilization in vitamin D-deficient Sprague-Dawley rat assessed as serum calcium level at 780 pmol, ip administered as 4 consecutive daily doses measured after 24 hrs post last dose by spectrometry relative to 1alpha,25-(OH)2D3; format: functional, organism-based
[6] = molecular target: T2, Vitamin D3 receptor (Rattus norvegicus) (UniProt P13053); test: Potency index, ratio of Ki for 1-alpha,25-(OH)2D3 to Ki for test compound for displacement of [3H]1-alpha,25-(OH)2D3 from rat recombinant full length VDR
T2 sequence (whole entry): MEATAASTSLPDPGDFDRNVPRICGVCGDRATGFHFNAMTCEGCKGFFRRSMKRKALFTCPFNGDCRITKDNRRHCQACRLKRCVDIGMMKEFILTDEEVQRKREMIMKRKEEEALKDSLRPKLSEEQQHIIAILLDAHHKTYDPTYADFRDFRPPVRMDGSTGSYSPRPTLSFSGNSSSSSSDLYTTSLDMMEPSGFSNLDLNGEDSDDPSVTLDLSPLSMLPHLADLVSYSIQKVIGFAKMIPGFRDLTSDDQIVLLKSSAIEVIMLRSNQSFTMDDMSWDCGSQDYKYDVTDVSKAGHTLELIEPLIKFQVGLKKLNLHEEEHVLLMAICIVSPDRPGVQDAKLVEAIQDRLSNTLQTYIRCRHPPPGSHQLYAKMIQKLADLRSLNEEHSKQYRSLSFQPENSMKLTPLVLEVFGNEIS

[7] = molecular target: T2, Vitamin D3 receptor (Rattus norvegicus); test: Potency index, ratio of ED50 for 1-alpha,25-(OH)2D3 to ED50 for test compound for agonist activity at rat recombinant full length VDR expressed in rat ROS 17/2.8 cells transfected with 24-hydroxylase gene promoter assessed as transcriptional activation after 16 hrs by luciferase reporter gene assay; format: cell-based

Ratio ED50 [4] | Ratio Ki [6] | Ratio ED50 [7] | SMILES | Activity (Rattus norvegicus [1]) | Activity (Rattus norvegicus [2]) | Activity (Rattus norvegicus [3]) | Activity (Rattus norvegicus [5])
4 | 0.5 | 2.5 | C=C1[C@H](O)CC(=C/C=C2\CCC[C@]3(C)[C@@H]([C@@H](C)C(=C)CCC(C)(C)O)CC[C@@H]23)C[C@H]1O | Active | Active | Active | Active
10 | 1 | 6.7 | C=C1[C@H](O)CC(=C/C=C2\CCC[C@]3(C)[C@@H]([C@@H](C)C(=C)CCC(O)(CC)CC)CC[C@@H]23)C[C@H]1O | Active | Active | Active | Active
25 | 1 | 29 | C=C1[C@H](O)CC(=C/C=C2\CCC[C@]3(C)[C@@H]([C@@H](C)CCCC(C)(C)O)CC[C@@H]23)C[C@H]1O | – | – | – | –
50 | 0.5 | 6.7 | C=C1[C@H](O)CC(=C/C=C2\CCC[C@]3(C)[C@@H]([C@@H](C)C(=C)CCCC(O)(CC)CC)CC[C@@H]23)C[C@H]1O | Active | Active | Active | Active
29 | 1 | 20 | C=C1[C@H](O)CC(=C/C=C2\CCC[C@]3(C)[C@@H]([C@@H](C)C(=C)CCC4(O)CCCC4)CC[C@@H]23)C[C@H]1O | Active | Active | Active | Active
0.1 | 0.01 | 0.05 | C=C1[C@H](O)CC(=C/C=C2\CCC[C@]3(C)[C@@H]([C@@H](C)C(=C)CCC(C)C)CC[C@@H]23)C[C@H]1O | Active | Active | Active | Active
50 | 1 | 20 | C=C1[C@H](O)CC(=C/C=C2\CCC[C@]3(C)[C@@H]([C@@H](C)C(=C)CCCC(C)(C)O)CC[C@@H]23)C[C@H]1O | Active | Active | Active | Active
